Key:
ALK (L1196M) = ALK (L1196M) (Homo sapiens, UniProt Q9UM73, L1196M); assay: Kinase inhibitory activity (33P-ATP filter-binding, scintillation counting); format: biochemical
Protocol: (§1) The measurement of the kinase inhibitory activity was performed in the following method.
(§2) 2. An evaluation compound (DMSO solution) and Mg/ATP were added to perform the reaction.
(§3) 3. After about 40 minutes at room temperature, 10 μL of 0.5% phosphoric acid was added to complete the reaction.
(§4) 4. The reaction solution was divided by 0.5% 10 μL and spotted on a P30 filtermat.
(§5) 5. […] The reaction solution was washed once with methanol and then dried and analyzed with scintillation counting to measure IC50 values.

EGFR (del19/L858R/T790M) = EGFR (del19/L858R/T790M) (Homo sapiens, UniProt P00533, T790M, form not given); assay: as above; format: biochemical
Protocol: as §1, §2, §3, §4, §5

EGFR (del19/T790M/C797S) = EGFR (del19/T790M/C797S) (Homo sapiens, UniProt P00533, C797S/DEL746-750/T790M); assay: as above; format: biochemical
Protocol: as §1, §2, §3, §4, §5

H2228 (EML4-ALK v3) = assay: Cancer cell growth inhibitory effect (MTT assay); format: cell-based; conditions: Homo sapiens, NCI-H2228, 72 hours, read-out: H2228 cell growth inhibition IC50
Protocol: (§6) With respect to the compounds obtained in Examples, a growth inhibitory effect of ALK mutation cancer cells and EGFR mutation Ba/F3 cancer cell lines was measured. The anti-cancer efficacy activity measurement was performed by the following method using an ALK mutation cell line such as H3122 (EML4-ALK v1), H2228 (EML4-ALK v3), etc. and an EGFR mutation Ba/F3 stable cell line.
(§7) 2×10^5 cells were seeded on a 96-well plate. After 24 hours, each of the drugs was treated in a dose dependent manner, and incubated after 72 hours, a 15 μL MTT reagent reacted for 4 hours, and then 100 μL 10% SDS was added and incubated for 24 hours. […] MTT result analysis measured the IC50 values through prism software.

H3122 (EML4-ALK v1) = assay: Cancer cell growth inhibitory effect (MTT assay); format: cell-based; conditions: Homo sapiens, NCI-H3122, 72 hours, read-out: H3122 cell growth inhibition IC50
Protocol: as §6, §7

[1] = target: T1, EGFR mutation Ba/F3 stable cell line DEL19/T790M/C797S (Homo sapiens, UniProt P00533, DEL746-750/T790M/C797S, cells depend on it); assay: Cancer cell growth inhibitory effect (MTT assay); format: cell-based, Murine; conditions: 72 hours, read-out: DEL19/T790M/C797S cell growth inhibition IC50
T1 construct: "del19, #32062; del19+T790M, #32072)
Protocol: as §6
Ba/F3 stable cell line construction: Murine lymphoid cells performed IL-3 dependent growth. […] A stable cell line was constructed using this principle even without puromycin selection. Briefly, each construction was infected on Ba/F3, and after 48 hours, IL-3 was removed by media exchange and cells were cultured. However, in the case of the wild type EGFR, puromycin selection was performed.
as §7

Row | SMILES | IC50 (ALK (L1196M)) [nM] | IC50 (EGFR (del19/L858R/T790M)) [nM] | IC50 (EGFR (del19/T790M/C797S)) [nM] | IC50 (H2228 (EML4-ALK v3)) [nM] | IC50 (H3122 (EML4-ALK v1)) [nM] | IC50 [1] [nM]
1 | COc1cc(N2CCOCC2)c(-c2cnn(C)c2)cc1Nc1ncc(Cl)c(Nc2ccccc2N(C)S(C)(=O)=O)n1 [Example 1, N-(2-((5-chloro-2-((2-methoxy-5-(1-methyl-1H-pyrazol-4-yl)-4-morpholinophenyl)amino)pyrimidine-4-yl)amino)phenyl)-N-methylmethanesulfonamide] | < 50 | < 50 | < 50 | < 100 | 50 to 100 | < 100
2 | COc1cc(N2CC3(COC3)C2)c(-c2cnn(C)c2)cc1Nc1ncc(Cl)c(Nc2ccccc2N(C)S(C)(=O)=O)n1 [Example 5, N-(2-((5-chloro-2-((2-methoxy-5-(1-methyl-1H-pyrazol-4-yl)-4-(2-oxa-6-azaspiro[3.3]heptane-6-yl)phenyl)amino)pyrimidine-4-yl)amino)phenyl)-N-methylmethanesulfonamide] | < 50 | < 50 | < 50 | < 100 | 50 to 100 | < 100
3 | COc1cc(N2CCN(C)CC2)c(-c2cnn(C)c2)cc1Nc1ncc(Cl)c(Nc2ccccc2NS(C)(=O)=O)n1 [Example 8, N-(2-((5-chloro-2-((2-methoxy-5-(1-methyl-1H-pyrazol-4-yl)-4-(4-methylpiperazine-1-yl)phenyl)amino)pyrimidine-4-yl)amino)phenyl)methanesulfonamide] | < 50 | 50 to 100 | 50 to 100 | > 500 | > 500 | 50 to 100
4 | C=CC(=O)Nc1cc(Nc2nccc(-c3cn(C)c4ccccc34)n2)c(OC)cc1N(C)CCN(C)C [Osimertinib, osimertinib, reference compound] | 50 to 100 |  |  | > 500 | > 500 | 
5 | COc1cc(N2CC3(COC3)C2)c(-c2cnn(C)c2)cc1Nc1ncc(Cl)c(Nc2ccccc2NS(C)(=O)=O)n1 [Example 9, N-(2-((5-chloro-2-((2-methoxy-5-(1-methyl-1H-pyrazol-4-yl)-4-(2-oxa-6-azaspiro[3.3]heptane-6-yl)phenyl)amino)pyrimidine-4-yl)amino)phenyl)methanesulfonamide] | < 50 | < 50 | < 50 | 50 to 100 | 50 to 100 | < 100
6 | COc1cc(N2CCOCC2)c(-c2cnn(C)c2)cc1Nc1ncc(Cl)c(Nc2ccccc2NS(C)(=O)=O)n1 [Example 2, N-(2-((5-chloro-2-((2-methoxy-5-(1-methyl-1H-pyrazol-4-yl)-4-morpholinophenyl)amino)pyrimidine-4-yl)amino)phenyl)methanesulfonamide] | < 50 |  |  | < 100 | 50 to 100 | 
7 | COc1cc(N2CCSCC2)c(-c2cnn(C)c2)cc1Nc1ncc(Cl)c(Nc2ccccc2N(C)S(C)(=O)=O)n1 [Example 3] | < 50 | < 50 | < 50 | < 100 | 50 to 100 | < 100

Next, values leading:

Row | IC50 (ALK (L1196M)) [nM] | IC50 (EGFR (del19/L858R/T790M)) [nM] | IC50 (EGFR (del19/T790M/C797S)) [nM] | IC50 (H2228 (EML4-ALK v3)) [nM] | IC50 (H3122 (EML4-ALK v1)) [nM] | IC50 [1] [nM] | SMILES
8 | < 50 | < 50 | 50 to 100 | 50 to 100 | 50 to 100 | 50 to 100 | COc1cc(N2CCN(C)CC2)c(-c2cnn(C)c2)cc1Nc1ncc(Cl)c(Nc2ccccc2N(C)S(C)(=O)=O)n1 [Example 4]
9 | < 50 | < 50 | < 50 | < 100 | 50 to 100 | < 100 | COc1cc(N2CCSCC2)c(-c2cnn(C)c2)cc1Nc1ncc(Cl)c(Nc2ccccc2NS(C)(=O)=O)n1 [Example 7, N-(2-((5-chloro-2-((2-methoxy-5-(1-methyl-1H-pyrazol-4-yl)-4-thiomorpholinophenyl)amino)pyrimidine-4-yl)amino)phenyl)methanesulfonamide]
10 | < 50 | < 50 | 50 to 100 | 50 to 100 | 50 to 100 | 50 to 100 | COc1cc(N2CC3(CN(C)C3)C2)c(-c2cnn(C)c2)cc1Nc1ncc(Cl)c(Nc2ccccc2N(C)S(C)(=O)=O)n1 [Example 6, N-(2-((5-chloro-2-((2-methoxy-5-(1-methyl-1H-pyrazol-4-yl)-4-(6-methyl-2,6-diazaspiro[3.3]heptane-2-yl)phenyl)amino)pyrimidine-4-yl)amino)phenyl)-N-methylmethanesulfonamide]
11 | < 50 | 50 to 100 | 50 to 100 | > 500 | > 500 | 50 to 100 | COc1cc(N2CC3(CN(C)C3)C2)c(-c2cnn(C)c2)cc1Nc1ncc(Cl)c(Nc2ccccc2NS(C)(=O)=O)n1 [Example 10, N-(2-((5-chloro-2-((2-methoxy-5-(1-methyl-1H-pyrazol-4-yl)-4-(6-methyl-2,6-diazaspiro[3.3]heptane-2-yl)phenyl)amino)pyrimidine-4-yl)amino)phenyl)methanesulfonamide]

Reference: US12421221B2 (ONCOBIX CO., LTD., priority 2019, dated 2025)
